The values below come from PMC4664966, “Discovery and characterization of novel inhibitors of the sodium-coupled citrate transporter (NaCT or SLC13A5)” (Scientific Reports, 2015).

Each structure is given as a SMILES string.

The target of series [1] is Choline transporter (CHT1) (SLC5A7) (Homo sapiens, UniProt Q9GZV3). The series can be described thus: Selectivity data (Table S1).
For series [2], the target named is Adenosine receptor A1 (ADORA1) (Homo sapiens, UniProt P30542). The series can be described thus: Selectivity data (Table S1). The class given is binding.
Series [3] has as its target Serotonin receptor 1A (5-HT1A) (Homo sapiens, UniProt P08908). As to the kind of experiment: Selectivity data (Table S1). It is filed as binding.
The test system of series [4] is mice fed a HFD. As to the kind of experiment: Chronic treatment of mice fed a HFD (OGTT, hepatic lipids).
Description: In studies requiring chronic treatment with compound, mice were purchased at 18 weeks of age following 13 weeks of HFD administration (D12459i; 60% of the calories from fat). Mice were maintained on HFD for the duration of the study in a 12:12-h light/dark cycle. […] To perform an oral glucose tolerance test (day 20 of dosing), mice were fasted at 6:00 AM to 12:00 PM and administered P.O. 1.5 g/kg at 12:00 PM. Glucose concentrations were determined using an AlphaTrak (Abbott Laboratories) at 0, 15, 30, 60, and 90 minutes. […] Hepatic lipids were measured by LC-MS/MS as previously described[42].
Series [5] deals with ATP-citrate lyase (Homo sapiens, UniProt P53396). The series can be described thus: ATP-citrate lyase interaction/inhibition. The class given is biochemical.
The target in series [6] is Muscarinic acetylcholine receptor 1 (M1) (Homo sapiens, UniProt P11229). As to the kind of experiment: Selectivity data (Table S1). The class given is binding.
Series [7] deals with Proto-oncogene tyrosine-protein kinase (SRC) (Homo sapiens, UniProt P12931). As to the kind of experiment: Selectivity data (Table S1). It is filed as biochemical.
Series [8] deals with HEKNaCT cells. As to the kind of experiment: OCR and ECAR measurements in HEKNaCT cells incubated with citrate (Seahorse). To be noted: 30 μM compound. The class given is cell-based, human. The method, then:
HEKNaCT cells were plated at 12,000 cells/well onto a poly-d-lysine coated XF96 plate (Sigma, Seahorse Biosciences). Cells were plated in culture media containing HG DMEM, 10% FBS, 2 mM glutamine, 1 mM pyruvate, 0.5 mg/mL Geneticin, and 1% penicillin/streptomycin (Life Technologies) and incubated overnight at 37 °C. The following day, the media was changed to Seahorse Biosciences assay medium (Seahorse Biosciences) supplemented with 10 mM glucose and 2 mM pyruvate (Sigma). The plate was pre-incubated for 1 hour in a 37 °C air incubator. […]

Series [9] addresses T1, NaDC1 (SLC13A2) (Homo sapiens, UniProt Q13183).
T1 construct: host or cells: HEK-293, transient (Fugene HD)
T1 sequence (Q13183 1-592): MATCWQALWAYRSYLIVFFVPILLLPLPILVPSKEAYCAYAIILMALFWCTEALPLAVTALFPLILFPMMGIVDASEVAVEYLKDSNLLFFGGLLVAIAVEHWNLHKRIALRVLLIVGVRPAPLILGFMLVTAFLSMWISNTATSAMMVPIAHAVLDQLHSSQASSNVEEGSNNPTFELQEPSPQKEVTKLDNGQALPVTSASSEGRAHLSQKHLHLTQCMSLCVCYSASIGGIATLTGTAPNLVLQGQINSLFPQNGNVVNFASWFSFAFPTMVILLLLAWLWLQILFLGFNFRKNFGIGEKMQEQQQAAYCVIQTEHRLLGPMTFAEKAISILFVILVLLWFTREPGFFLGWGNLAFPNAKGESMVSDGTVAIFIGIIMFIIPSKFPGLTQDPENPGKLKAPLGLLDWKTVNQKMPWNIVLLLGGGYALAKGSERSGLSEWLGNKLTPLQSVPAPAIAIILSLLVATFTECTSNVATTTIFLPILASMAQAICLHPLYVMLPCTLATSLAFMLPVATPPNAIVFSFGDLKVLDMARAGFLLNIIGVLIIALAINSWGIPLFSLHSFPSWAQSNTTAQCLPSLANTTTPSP
As to the kind of experiment: Inhibition of citrate or succinate uptake in HEKNaDC1 cells. The class given is cell-based. The text has this:
Protocols to generate the stable cell line overexpressing NaCT or cell transfection with SLC13A2 or SLC13A3 can be found in the supporting information. HEK-293 cells stably transfected with the human sodium Citrate transporter SLC13A5 or transiently transfected with the human SLC13A2 or SLC13A3 transporter were removed from the flasks with dissociation buffer and re-suspended in an equal volume of growth media (DMEM, High Glucose supplemented with 10% heat inactivated fetal bovine serum and 500 μg/ml Geneticin). For the transient transfections, Geneticin was eliminated from the media. Cell suspensions were centrifuged at 1,000 rpm for approximately 5 minutes. Resulting cell pellets were re-suspended in growth media and placed in a 37 °C water bath for approximately 10 minutes prior to a final spin at 1,000 rpm. Following this spin the resulting cell pellets were re-suspended in assay buffer, 142 mM NaCl (or 142 mM choline chloride), 5 mM KCl, 1.2 mM MgSO4, 1.5 mM CaCl, 5 mM glucose and 25 mM HEPES pH 7.4. Cell suspensions were counted and the concentration adjusted as needed with assay buffer to 2e[6] viable cells /mL. 20 μL of cell suspension were added to 384-well cyotstar-T plates followed by the addition of 5 μL of 10× concentration of compound. Cells and compound were incubated at 37 °C for approximately 30 minutes prior to the addition of 25 μL of 300 μM citric acid (16 μM radiolabeled [^14C]-citric acid and 284 μM cold citric acid) to make a 150 μM final concentration of citric acid or 21 μM [^14C]-succinic acid. After substrate addition, the uptake of radioactivity was monitored on Perkin Elmer Microbeta plate reader. Data from reads between 45–90 minutes was used to assess the ability of test compounds to inhibit the uptake of citric or succinic acid. […]
were plated, and incubated for 48 hours. Following the incubation, NaDC1 and NaDC3 assays were executed identical to the procedure for NaCT. […]
The solution was heated to reflux until the total volume was reduced to ~25 mL. […]

The mark [10] stands for this setting: HFD mice, 250 mg/kg BID for 21 days.

Chain of Choline transporter (CHT1) (SLC5A7) (Q9GZV3 whole entry): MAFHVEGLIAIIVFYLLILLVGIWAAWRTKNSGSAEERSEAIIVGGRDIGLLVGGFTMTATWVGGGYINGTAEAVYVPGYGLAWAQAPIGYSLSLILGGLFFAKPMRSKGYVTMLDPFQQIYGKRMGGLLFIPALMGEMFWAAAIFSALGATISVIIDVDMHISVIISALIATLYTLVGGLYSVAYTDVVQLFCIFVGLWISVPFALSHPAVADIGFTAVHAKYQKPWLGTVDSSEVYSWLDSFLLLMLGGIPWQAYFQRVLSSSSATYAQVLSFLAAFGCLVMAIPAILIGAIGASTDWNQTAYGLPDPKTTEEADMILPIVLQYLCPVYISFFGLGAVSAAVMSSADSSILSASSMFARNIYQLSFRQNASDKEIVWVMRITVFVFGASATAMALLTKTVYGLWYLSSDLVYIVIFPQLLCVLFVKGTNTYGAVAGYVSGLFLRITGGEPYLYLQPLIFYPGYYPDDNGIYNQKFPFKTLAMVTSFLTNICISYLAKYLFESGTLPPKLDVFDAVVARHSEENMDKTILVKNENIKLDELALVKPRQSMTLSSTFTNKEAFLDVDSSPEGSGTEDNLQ
Chain of Proto-oncogene tyrosine-protein kinase (SRC) (P12931 whole entry): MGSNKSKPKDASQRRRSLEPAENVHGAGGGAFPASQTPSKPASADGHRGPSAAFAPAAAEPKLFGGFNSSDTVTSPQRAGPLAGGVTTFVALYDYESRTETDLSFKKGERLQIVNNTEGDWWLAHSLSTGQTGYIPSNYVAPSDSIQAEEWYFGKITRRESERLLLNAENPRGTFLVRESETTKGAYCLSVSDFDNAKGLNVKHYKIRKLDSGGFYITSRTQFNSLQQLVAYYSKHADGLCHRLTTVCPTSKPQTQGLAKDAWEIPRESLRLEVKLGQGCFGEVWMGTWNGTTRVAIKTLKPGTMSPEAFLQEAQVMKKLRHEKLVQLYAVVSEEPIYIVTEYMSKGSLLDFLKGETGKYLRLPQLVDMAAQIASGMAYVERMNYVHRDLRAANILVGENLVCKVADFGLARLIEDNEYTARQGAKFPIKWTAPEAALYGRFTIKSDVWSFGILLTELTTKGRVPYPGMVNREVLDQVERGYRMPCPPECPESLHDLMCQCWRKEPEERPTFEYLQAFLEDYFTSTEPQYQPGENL
Chain of Adenosine receptor A1 (ADORA1) (P30542 whole entry): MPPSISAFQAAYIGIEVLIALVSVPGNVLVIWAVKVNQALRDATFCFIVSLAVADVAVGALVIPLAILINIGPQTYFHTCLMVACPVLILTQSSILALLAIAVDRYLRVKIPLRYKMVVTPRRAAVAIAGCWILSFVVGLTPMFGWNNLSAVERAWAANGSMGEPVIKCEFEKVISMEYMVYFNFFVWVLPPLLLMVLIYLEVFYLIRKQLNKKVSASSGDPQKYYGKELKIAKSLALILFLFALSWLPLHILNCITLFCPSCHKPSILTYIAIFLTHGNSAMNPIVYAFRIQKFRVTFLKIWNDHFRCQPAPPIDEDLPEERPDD
Chain of Serotonin receptor 1A (5-HT1A) (P08908 whole entry): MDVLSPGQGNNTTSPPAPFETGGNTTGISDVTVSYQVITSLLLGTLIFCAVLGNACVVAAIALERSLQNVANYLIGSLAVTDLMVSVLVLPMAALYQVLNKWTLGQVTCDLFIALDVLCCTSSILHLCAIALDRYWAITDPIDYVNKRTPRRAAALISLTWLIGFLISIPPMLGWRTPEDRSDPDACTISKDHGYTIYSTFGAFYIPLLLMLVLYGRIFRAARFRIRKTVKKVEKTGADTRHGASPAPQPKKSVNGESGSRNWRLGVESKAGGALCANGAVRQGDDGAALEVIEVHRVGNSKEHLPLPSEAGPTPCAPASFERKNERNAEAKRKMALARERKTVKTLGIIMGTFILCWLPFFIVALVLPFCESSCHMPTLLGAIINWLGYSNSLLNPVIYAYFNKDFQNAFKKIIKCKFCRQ
Chain of Muscarinic acetylcholine receptor 1 (M1) (P11229 whole entry): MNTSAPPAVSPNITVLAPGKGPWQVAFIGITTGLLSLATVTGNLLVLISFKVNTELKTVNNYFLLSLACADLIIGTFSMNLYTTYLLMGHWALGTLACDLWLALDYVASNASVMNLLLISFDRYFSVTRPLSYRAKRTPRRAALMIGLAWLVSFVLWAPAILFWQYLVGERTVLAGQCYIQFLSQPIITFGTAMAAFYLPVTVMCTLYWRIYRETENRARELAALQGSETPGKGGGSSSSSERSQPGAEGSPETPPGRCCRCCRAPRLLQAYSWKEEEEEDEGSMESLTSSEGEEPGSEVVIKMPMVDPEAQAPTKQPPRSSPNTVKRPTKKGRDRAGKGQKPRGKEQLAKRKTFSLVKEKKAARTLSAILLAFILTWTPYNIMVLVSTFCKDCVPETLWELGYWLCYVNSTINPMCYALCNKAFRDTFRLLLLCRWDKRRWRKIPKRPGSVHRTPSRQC
Chain of ATP-citrate lyase (P53396 whole entry): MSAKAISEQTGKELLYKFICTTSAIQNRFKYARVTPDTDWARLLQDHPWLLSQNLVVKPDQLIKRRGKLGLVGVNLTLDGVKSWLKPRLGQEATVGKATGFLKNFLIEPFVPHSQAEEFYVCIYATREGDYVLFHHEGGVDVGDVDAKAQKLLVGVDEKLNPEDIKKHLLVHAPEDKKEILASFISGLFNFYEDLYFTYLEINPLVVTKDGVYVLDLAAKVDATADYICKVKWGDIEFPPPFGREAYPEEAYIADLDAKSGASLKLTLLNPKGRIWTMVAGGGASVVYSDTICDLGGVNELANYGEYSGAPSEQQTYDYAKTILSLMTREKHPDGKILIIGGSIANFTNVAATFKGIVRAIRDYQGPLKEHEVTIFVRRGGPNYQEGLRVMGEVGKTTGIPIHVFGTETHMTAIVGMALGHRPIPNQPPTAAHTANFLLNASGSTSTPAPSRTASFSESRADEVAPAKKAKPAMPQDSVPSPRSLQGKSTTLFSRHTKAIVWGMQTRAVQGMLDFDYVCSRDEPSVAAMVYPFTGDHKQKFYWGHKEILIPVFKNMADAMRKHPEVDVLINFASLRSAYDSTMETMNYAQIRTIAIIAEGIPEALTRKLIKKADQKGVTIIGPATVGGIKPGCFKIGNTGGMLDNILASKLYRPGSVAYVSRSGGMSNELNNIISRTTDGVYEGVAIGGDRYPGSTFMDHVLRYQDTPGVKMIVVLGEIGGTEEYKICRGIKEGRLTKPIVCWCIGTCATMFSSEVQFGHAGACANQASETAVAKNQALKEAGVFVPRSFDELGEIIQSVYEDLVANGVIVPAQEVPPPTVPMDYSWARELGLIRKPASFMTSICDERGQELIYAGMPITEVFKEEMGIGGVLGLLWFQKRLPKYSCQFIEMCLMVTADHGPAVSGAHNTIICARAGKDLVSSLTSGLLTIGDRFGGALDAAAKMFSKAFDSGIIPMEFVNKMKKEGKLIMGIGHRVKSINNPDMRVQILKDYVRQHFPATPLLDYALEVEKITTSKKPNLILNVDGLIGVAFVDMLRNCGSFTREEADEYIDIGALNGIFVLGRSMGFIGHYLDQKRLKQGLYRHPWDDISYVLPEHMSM

As for `CC(C)(C)c1ccc(CC[C@@](O)(CC(=O)O)C(=O)O)cc1` [Compound 2], the inhibition at 100 µM in series [1], in [2], in [3], in [6] and in series [7] was below 10% throughout. In addition, the “plasma insulin concentrations area under the curve during OGTT” value in series [4] (HFD mice, 250 mg/kg BID) is “no differences”. For the same compound, in [4] (setting [10]), the “hepatic TAG and DAG” value is on record as “trend for lower”. In addition, the hepatic acylcarnitine result in series [4] (setting [10]) is on record as “higher levels”. In [4] (setting [10]), this compound returned a β-hydroxybutyrate concentrations of 0.49 ± 0.06 mmol/L. Further, the “glucose intolerance during OGTT” value in series [4] (HFD mice, 250 mg/kg BID, day 20) is reported as “completely reversed”. In addition, the “phenotype analogous to epileptic encephalopathy” value in [4] (during the in vivo experiments) is “no phenotype analogous to epileptic encephalopathy was observed”. The “interaction/inhibition of ATP-citrate lyase” value in [5] is “no significant interaction/inhibition”. Also, the “effect on citrate induced increase in oxygen consumption rate (OCR)” value in series [8] is reported as “prevented citrate induced increase in mitochondrial respiration”. Moreover, the “effect on citrate suppressed extracellular acidification rate (ECAR)” value in series [8] (citrate) is on record as “restored”. In addition, in [9] (HEK-293-derived system overexpressing NaDC1), the “inhibition of citrate or succinate uptake, NaDC1” value was “No measurable inhibition”. Moreover, the IC50 in [9] (compound 4: mean of 2 replicates) is above 100 µM.

What is called inhibition is the relative decrease from the control value, in per cent. A lower inhibition goes with a weak effect. The IC50 is the point on the concentration scale where inhibition reaches its midpoint. A high value points to weaker potency in that assay.
